Measured values reported in the supplement of paper PMC4862054.

Assays:
Settings in all cases: incubation time: 72 h
BT-474 [1] = assay: normalised response (% of control), CellTiter-Glo; higher = more viable cells (100 = DMSO, 0 = benzethonium chloride kill control)
Method in brief: (§1)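 Each entry is the normalised signal at a single concentration within a series. The series comprised 5 concentrations in 10-fold steps over a compound-specific 10,000-fold range, placed in 384-well plates into which breast cancer cell lines were seeded as 20 µl suspension and incubated 72 h. CellTox Green (485/520 nm) fluorescence and then CellTiter-Glo luminescence were read, with signals normalised per plate to 0.1 % DMSO (100) and a positive kill control (0).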

BT-549 [2] = assay: as above
Method in brief: as §1

CAL-120 [3] = assay: as above
Method in brief: as §1

CAL-148 [4] = assay: as above
Method in brief: as §1

CAL-51 [5] = assay: as above
Method in brief: as §1

CAL-85-1 [6] = assay: as above
Method in brief: as §1

DU-4475 [7] = assay: as above
Method in brief: as §1

HCC1143 [8] = assay: as above
Method in brief: as §1

HCC1599 [9] = assay: as above
Method in brief: as §1

HCC1937 [10] = assay: as above
Method in brief: as §1

HDQ-P1 [11] = assay: as above
Method in brief: as §1

Hs578T [12] = assay: as above
Method in brief: as §1

MCF-10A = assay: as above
Method in brief: as §1

MDA-MB-231 [13] = assay: as above
Method in brief: as §1

MDA-MB-436 [14] = assay: as above
Method in brief: as §1

MDA-MB-453 [15] = assay: as above
Method in brief: as §1

MDA-MB-468 [16] = assay: as above
Method in brief: as §1

MFM-223 [17] = assay: as above
Method in brief: as §1

SK-BR-3 [18] = assay: as above
Method in brief: as §1

BT-474 [19] = assay: normalised viability (% of control), CellTiter-Blue; higher = more viable cells (100 = DMSO, 0 = benzethonium chloride kill control)
Method: (§2)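 DSRT, CellTiter-Blue viability, 72 h incubation. Signal is normalised to DMSO and benzethonium chloride controls. Value is the normalised response at dose 1.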

BT-549 [20] = assay: as above
Method: as §2

CAL-120 [21] = assay: as above
Method: as §2

CAL-148 [22] = assay: as above
Method: as §2

CAL-51 [23] = assay: as above
Method: as §2

CAL-85-1 [24] = assay: as above
Method: as §2

DU-4475 [25] = assay: as above
Method: as §2

HCC1143 [26] = assay: as above
Method: as §2

HCC1599 [27] = assay: as above
Method: as §2

HCC1937 [28] = assay: as above
Method: as §2

HDQ-P1 [29] = assay: as above
Method: as §2

Hs578T [30] = assay: as above
Method: as §2

MDA-MB-231 [31] = assay: as above
Method: as §2

MDA-MB-436 [32] = assay: as above
Method: as §2

MDA-MB-453 [33] = assay: as above
Method: as §2

MDA-MB-468 [34] = assay: as above
Method: as §2

MFM-223 [35] = assay: as above
Method: as §2

SK-BR-3 [36] = assay: as above
Method: as §2

SMILES	normalised response (BT-474 [1]) [%]	normalised response (BT-549 [2]) [%]	normalised response (CAL-120 [3]) [%]	normalised response (CAL-148 [4]) [%]	normalised response (CAL-51 [5]) [%]	normalised response (CAL-85-1 [6]) [%]	normalised response (DU-4475 [7]) [%]	normalised response (HCC1143 [8]) [%]	normalised response (HCC1599 [9]) [%]	normalised response (HCC1937 [10]) [%]	normalised response (HDQ-P1 [11]) [%]	normalised response (Hs578T [12]) [%]	normalised response (MCF-10A) [%]	normalised response (MDA-MB-231 [13]) [%]	normalised response (MDA-MB-436 [14]) [%]	normalised response (MDA-MB-453 [15]) [%]	normalised response (MDA-MB-468 [16]) [%]	normalised response (MFM-223 [17]) [%]	normalised response (SK-BR-3 [18]) [%]	normalised viability (BT-474 [19]) [%]	normalised viability (BT-549 [20]) [%]	normalised viability (CAL-120 [21]) [%]	normalised viability (CAL-148 [22]) [%]	normalised viability (CAL-51 [23]) [%]	normalised viability (CAL-85-1 [24]) [%]	normalised viability (DU-4475 [25]) [%]	normalised viability (HCC1143 [26]) [%]	normalised viability (HCC1599 [27]) [%]	normalised viability (HCC1937 [28]) [%]	normalised viability (HDQ-P1 [29]) [%]	normalised viability (Hs578T [30]) [%]	normalised viability (MDA-MB-231 [31]) [%]	normalised viability (MDA-MB-436 [32]) [%]	normalised viability (MDA-MB-453 [33]) [%]	normalised viability (MDA-MB-468 [34]) [%]	normalised viability (MFM-223 [35]) [%]	normalised viability (SK-BR-3 [36]) [%]
Cn1cnc2c(F)c(Nc3ccc(Br)cc3Cl)c(C(=O)NOCCO)cc21 [Selumetinib] (1 nM)	84.7	103	93.3	87.8	99.8	104	95.5	89.6	93.2	89.5	91.4	99	81.2	97	80.8	111	93.8	94.9	96.5	104	102	81	107	113	90.1	102	90.6	98.5	100	107	107	89	97.6	109	101	83.6	94
CC(C)(C)c1cnc(CSc2cnc(NC(=O)C3CCNCC3)s2)o1 [SNS-032] (1 nM)	92.2	101	91.2	92.2	86.2	105	98.2	97.3	96.3	90.8	95	97.6	95.5	97.5	84.1	99.2	92	92	90.8	101	113	86.2	113	113	92.7	99	85.9	101	103	102	104	97.7	113	103	104	93.1	101
CC(=O)c1c(C)c2cnc(Nc3ccc(N4CCNCC4)cn3)nc2n(C2CCCC2)c1=O (1 nM)	–	–	–	–	–	–	–	–	–	–	–	–	–	–	–	–	–	–	–	108	102	87.1	107	104	87.9	99	100	105	94.7	79.2	89.5	94.6	94.1	106	109	88.5	93.1
COc1cc(F)c(F)c(Nc2ccc(I)cc2F)c1NS(=O)(=O)C1(C[C@H](O)CO)CC1 [RDEA119] (1 nM)	–	–	–	–	–	–	–	–	–	–	–	–	–	–	–	–	–	–	–	79.7	97.3	98.7	88.7	91.8	108	99.3	98.8	93	80.9	79.4	95.4	77.4	104	84.5	95.8	92.5	106
C[C@]1(O)C[C@@H](c2nc(-c3ccc4ccc(-c5ccccc5)nc4c3)c3c(N)nccn32)C1 [OSI-906] (1 nM)	–	–	–	–	–	–	–	–	–	–	–	–	–	–	–	–	–	–	–	82.9	95.7	97.4	94.6	95.6	100	89	96.8	100	92.3	74.5	101	83.7	85	85.7	100	95.6	91.1
C[C@]12CC[C@@H]3c4ccc(OC(=O)N(CCCl)CCCl)cc4CC[C@H]3[C@@H]1CC[C@@H]2O [Estramustine] (0.099 nM)	–	–	–	–	–	–	–	–	–	–	–	–	–	–	–	–	–	–	–	93.4	92.4	111	109	84	108	89.9	104	84.8	91.8	106	94.3	93.3	106	98.9	107	106	114
